These are literature values, as cited in patent US20220362213A1, “METHODS FOR TREATING POST ENDOSCOPIC RETROGRADE CHOLANGIOPANCREATOGRAPHY PANCREATITIS” (priority 2021, published 2022).

For data set [1], the system named is post-ERCP pancreatitis. The settings on record: single-dose rectal; meta-analysis of preliminary studies.
In data set [2] the test system is post-ERCP pancreatitis. The settings on record: for preventing post-ERCP pancreatitis: two large controlled trials, pharmacologic prevention in high-risk patients.

Regarding `O=C(O)Cc1ccccc1Nc1c(Cl)cccc1Cl` [diclofenac], the “protective effects in post-ERCP pancreatitis” value with post-ERCP pancreatitis [1] is reported as “benefit”. For the molecule secretin, the “incidence of post-ERCP pancreatitis” value in the data set on post-ERCP pancreatitis [2] (retrospective review of 4833 ERCP procedures, patients without pancreas divisum) is recorded as “might decrease the incidence”. For the molecule `COc1ccc2c(c1)c(CC(=O)O)c(C)n2C(=O)c1ccc(Cl)cc1` [indomethacin], the “protective effects in post-ERCP pancreatitis” value in the data set with post-ERCP pancreatitis [1] is reported as “benefit”. Consider `C[C@@H](O)[C@@H]1NC(=O)[C@H](CCCCN)NC(=O)[C@@H](Cc2c[nH]c3ccccc23)NC(=O)[C@H](Cc2ccccc2)NC(=O)[C@@H](NC(=O)[C@H](N)Cc2ccccc2)CSSC[C@@H](C(=O)N[C@H](CO)[C@@H](C)O)NC1=O` [octreotide], for which the hyperamylasemia entry in the data set on post-ERCP pancreatitis [2] (after ERCP) was “reduces hyperamylasemia”. Also, the “clinical course of post-ERCP pancreatitis” value in the data set on post-ERCP pancreatitis [2] (human, in vivo) is “has not been shown to alter the clinical course”. Besides, the “preventing post-ERCP pancreatitis” value in the data set with post-ERCP pancreatitis [2] is given as “ineffective”.

`CCOC(=O)c1ccc(OC(=O)CCCCCNC(=N)N)cc1` [gabexate]: the “reducing the frequency of post-ERCP pancreatitis” value in the data set on post-ERCP pancreatitis [2] (prophylaxis, meta-analysis of 28 clinical trials) is recorded as “effective”. In addition, the “preventing post-ERCP pancreatitis” value in the data set on post-ERCP pancreatitis [2] is listed as “ineffective”.
